Data published in patent US9790210B2, “N-(monocyclic aryl),N'-pyrazolyl-urea, thiourea, guanidine and cyanoguanidine compounds as TrkA kinase inhibitors” (Array BioPharma Inc., priority 2012, dated 2017).
pIC50: −log10 of the molar value.

What was measured:
TrkA [1] = target: T1, TrkA (Homo sapiens, UniProt P04629); test: TrkA LanthaScreen Eu Kinase Binding Assay; parameters: 6HIS tagged cytoplasmic domain from Invitrogen, Catalog No. PV3144; purchased Invitrogen PV3144; conditions: averaged IC50; TR-FRET binding assay; read-out: TrkA Enzyme IC50
Experimental: TrkA binding activity was determined in a TrkA LanthaScreen™ Eu Kinase Binding Assay. 5 nM His-tagged recombinant human TrkA (6HIS tagged cytoplasmic domain from Invitrogen, Catalog No. PV3144) was incubated with 4 nM Alexa-Fluor® Tracer 236 (Invitrogen Cat. No. PV5592), 2 nM biotinylated anti-His (Invitrogen Cat. No. PV6090), and 2 nM europium-labeled Streptavidin (Invitrogen Cat. No. PV5899), in buffer (25 mM MOPS, pH 7.5, 5 mM MgCl2, 0.005% Triton X-100). Three fold serial dilutions of compounds of the invention in DMSO were added to a final percentage of 2% DMSO. After 60-minute incubation at 22° C., the reaction was measured using the EnVision mutlimode plate reader (PerkinElmer) via TR-FRET dual wavelength detection at […]. The percent of control was calculated using a ratiometric emission factor. The IC50 values were determined by fitting a four parameter model to the percent of control data.
Table A provides averaged IC50 values for compounds of the invention when tested in the assay of Example A, where A represents an averaged IC50 value<100 nM; B represents an averaged IC50 value from 100 to 1,000 nM; and C represents an averaged IC50 value from 1,000 to 10,000 nM.

TrkA [2] = target: T1, TrkA; test: KinaseProfiler; type: biochemical; parameters: purchased Millipore, Inc. (KinaseProfiler service); conditions: 10 μM, ATP near Km
Experimental: (§1) A representative compound (Example 15) of the invention was tested for off-target kinase activity at a concentration of 10 μM by Millipore, Inc. in their KinaseProfiler™ service against all the kinases available in their full kinase panel. The compound was run in duplicate at a concentration of ATP near the Km for each individual kinase according to Millipore's specifications. The results are shown in Table B. Data are reported as percent of control (POC) and are the average of the two replicates.

MST3 = target: T2, MST3 (Homo sapiens, UniProt Q9Y6E0); test: KinaseProfiler; type: biochemical; conditions: 10 μM, ATP near Km
T2 construct: purchased Millipore, Inc. (KinaseProfiler service)
Method in brief: (§2)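 Kinase activity was assessed with 10 μM compound under ATP-near-Km conditions specific to each enzyme. Duplicates were averaged and expressed relative to control as POC.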

MAP3K5 = target: T3, MAP3K5 (Homo sapiens, UniProt Q99683); test: KinaseProfiler; type: biochemical; conditions: 10 μM, ATP near Km
T3 construct: purchased Millipore, Inc. (KinaseProfiler service)
Method in brief: as §2

CLK2 = target: T4, CLK2 (Homo sapiens, UniProt P49760); test: KinaseProfiler; type: biochemical; conditions: 10 μM, ATP near Km
T4 construct: purchased Millipore, Inc. (KinaseProfiler service)
Method in brief: as §2

CDK9/cyclinT1 = target: T5, CDK9/cyclinT1 (Homo sapiens, UniProt P50750); test: KinaseProfiler; type: biochemical; conditions: 10 μM, ATP near Km
T5 construct: purchased Millipore, Inc. (KinaseProfiler service)
Method in brief: as §2

CDK2/cyclinE = target: T6, CDK2/cyclinE (Homo sapiens, UniProt P24941); test: KinaseProfiler; type: biochemical; conditions: 10 μM, ATP near Km
T6 construct: purchased Millipore, Inc. (KinaseProfiler service)
Method in brief: as §2

Syk = target: T7, Syk (Homo sapiens, UniProt P43405); test: KinaseProfiler; type: biochemical; conditions: 10 μM, ATP near Km
T7 construct: purchased Millipore, Inc. (KinaseProfiler service)
Method in brief: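 Single-point panel screen: compound fixed at 10 μM, ATP set near each enzyme's Km, two replicates per kinase; results expressed as POC averaged across replicates.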

TAO2 = target: T8, TAO2 (Homo sapiens, UniProt Q9UL54); test: KinaseProfiler; type: biochemical; conditions: 10 μM, ATP near Km
T8 construct: purchased Millipore, Inc. (KinaseProfiler service)
T8 sequence (Q9UL54 whole entry): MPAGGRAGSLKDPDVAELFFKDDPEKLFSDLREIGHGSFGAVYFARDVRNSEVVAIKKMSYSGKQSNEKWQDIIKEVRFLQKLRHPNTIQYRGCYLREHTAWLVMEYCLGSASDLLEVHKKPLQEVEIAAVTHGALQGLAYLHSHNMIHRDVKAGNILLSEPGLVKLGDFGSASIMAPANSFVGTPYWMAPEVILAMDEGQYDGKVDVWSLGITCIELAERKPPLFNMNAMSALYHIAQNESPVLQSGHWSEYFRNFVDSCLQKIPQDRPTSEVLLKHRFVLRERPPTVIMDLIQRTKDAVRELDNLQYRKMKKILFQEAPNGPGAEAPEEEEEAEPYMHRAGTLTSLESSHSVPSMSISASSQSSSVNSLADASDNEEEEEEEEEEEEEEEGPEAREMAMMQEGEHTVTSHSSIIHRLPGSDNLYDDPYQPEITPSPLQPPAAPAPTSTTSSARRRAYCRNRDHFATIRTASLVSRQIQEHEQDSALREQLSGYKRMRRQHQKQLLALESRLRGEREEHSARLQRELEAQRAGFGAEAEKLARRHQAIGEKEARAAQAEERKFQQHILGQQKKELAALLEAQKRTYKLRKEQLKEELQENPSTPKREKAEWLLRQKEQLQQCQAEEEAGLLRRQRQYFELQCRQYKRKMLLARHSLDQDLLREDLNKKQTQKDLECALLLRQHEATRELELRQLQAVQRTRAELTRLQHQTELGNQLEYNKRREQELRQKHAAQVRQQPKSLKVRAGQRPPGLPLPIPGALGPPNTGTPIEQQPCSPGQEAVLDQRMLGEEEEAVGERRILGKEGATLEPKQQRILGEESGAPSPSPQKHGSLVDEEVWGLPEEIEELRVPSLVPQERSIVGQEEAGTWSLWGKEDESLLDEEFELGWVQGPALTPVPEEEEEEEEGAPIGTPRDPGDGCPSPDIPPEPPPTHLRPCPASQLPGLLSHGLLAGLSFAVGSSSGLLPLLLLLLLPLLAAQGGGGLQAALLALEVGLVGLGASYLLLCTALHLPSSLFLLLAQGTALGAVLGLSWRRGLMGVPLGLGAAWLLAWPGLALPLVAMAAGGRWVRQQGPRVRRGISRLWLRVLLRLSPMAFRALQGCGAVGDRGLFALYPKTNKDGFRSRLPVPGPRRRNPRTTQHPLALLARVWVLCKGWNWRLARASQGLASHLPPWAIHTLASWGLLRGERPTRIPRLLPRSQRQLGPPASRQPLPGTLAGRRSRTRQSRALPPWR
Method in brief: as §2

MST2 = target: T9, MST2 (Homo sapiens, UniProt Q13188); test: KinaseProfiler; type: biochemical; conditions: 10 μM, ATP near Km
T9 construct: purchased Millipore, Inc. (KinaseProfiler service)
Method in brief: as §2

PAK6 = target: T10, PAK6 (Homo sapiens, UniProt Q9NQU5); test: KinaseProfiler; type: biochemical; conditions: 10 μM, ATP near Km
T10 construct: purchased Millipore, Inc. (KinaseProfiler service)
T10 sequence (Q9NQU5 whole entry): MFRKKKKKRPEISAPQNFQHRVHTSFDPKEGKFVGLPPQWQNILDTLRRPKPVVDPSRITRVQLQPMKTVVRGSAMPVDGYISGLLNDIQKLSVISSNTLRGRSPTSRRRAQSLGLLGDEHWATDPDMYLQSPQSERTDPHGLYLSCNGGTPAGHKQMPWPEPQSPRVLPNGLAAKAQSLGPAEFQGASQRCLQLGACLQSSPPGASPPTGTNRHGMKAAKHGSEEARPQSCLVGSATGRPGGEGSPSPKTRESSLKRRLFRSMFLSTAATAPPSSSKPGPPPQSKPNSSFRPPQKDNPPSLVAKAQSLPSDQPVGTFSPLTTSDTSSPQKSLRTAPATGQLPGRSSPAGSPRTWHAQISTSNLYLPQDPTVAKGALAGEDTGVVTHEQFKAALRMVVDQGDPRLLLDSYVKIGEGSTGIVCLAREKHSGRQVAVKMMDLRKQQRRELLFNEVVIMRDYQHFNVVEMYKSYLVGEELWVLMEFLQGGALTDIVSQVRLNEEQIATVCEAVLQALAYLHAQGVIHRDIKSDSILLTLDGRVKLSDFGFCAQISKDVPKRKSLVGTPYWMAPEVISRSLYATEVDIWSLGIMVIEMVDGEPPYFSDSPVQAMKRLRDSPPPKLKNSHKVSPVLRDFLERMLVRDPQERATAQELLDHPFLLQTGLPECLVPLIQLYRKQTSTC
Method in brief: as §2

TrkB = target: T11, TrkB (Homo sapiens, UniProt Q16620); test: KinaseProfiler; type: biochemical; conditions: 10 μM, ATP near Km
T11 construct: purchased Millipore, Inc. (KinaseProfiler service)
Method in brief: as §2

NEK3 = target: T12, NEK3 (Homo sapiens, UniProt P51956); test: KinaseProfiler; type: biochemical; conditions: 10 μM, ATP near Km
T12 construct: purchased Millipore, Inc. (KinaseProfiler service)
T12 sequence (P51956 whole entry): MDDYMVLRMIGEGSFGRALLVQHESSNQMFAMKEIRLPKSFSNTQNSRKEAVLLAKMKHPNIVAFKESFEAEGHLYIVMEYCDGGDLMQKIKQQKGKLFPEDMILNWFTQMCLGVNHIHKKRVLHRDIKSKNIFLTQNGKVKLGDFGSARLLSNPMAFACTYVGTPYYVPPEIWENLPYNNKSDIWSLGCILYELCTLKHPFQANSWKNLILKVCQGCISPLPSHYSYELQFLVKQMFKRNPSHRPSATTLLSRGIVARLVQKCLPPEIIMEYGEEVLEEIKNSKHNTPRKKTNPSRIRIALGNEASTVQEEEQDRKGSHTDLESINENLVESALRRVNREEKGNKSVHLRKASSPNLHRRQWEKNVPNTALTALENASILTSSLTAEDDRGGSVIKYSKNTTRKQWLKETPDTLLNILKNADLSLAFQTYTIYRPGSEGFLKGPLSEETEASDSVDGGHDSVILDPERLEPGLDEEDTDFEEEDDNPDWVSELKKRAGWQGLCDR
Method in brief: as §2

GRK7 = target: T13, GRK7 (Homo sapiens, UniProt Q8WTQ7); test: KinaseProfiler; type: biochemical; conditions: 10 μM, ATP near Km
T13 construct: purchased Millipore, Inc. (KinaseProfiler service)
T13 sequence (Q8WTQ7 whole entry): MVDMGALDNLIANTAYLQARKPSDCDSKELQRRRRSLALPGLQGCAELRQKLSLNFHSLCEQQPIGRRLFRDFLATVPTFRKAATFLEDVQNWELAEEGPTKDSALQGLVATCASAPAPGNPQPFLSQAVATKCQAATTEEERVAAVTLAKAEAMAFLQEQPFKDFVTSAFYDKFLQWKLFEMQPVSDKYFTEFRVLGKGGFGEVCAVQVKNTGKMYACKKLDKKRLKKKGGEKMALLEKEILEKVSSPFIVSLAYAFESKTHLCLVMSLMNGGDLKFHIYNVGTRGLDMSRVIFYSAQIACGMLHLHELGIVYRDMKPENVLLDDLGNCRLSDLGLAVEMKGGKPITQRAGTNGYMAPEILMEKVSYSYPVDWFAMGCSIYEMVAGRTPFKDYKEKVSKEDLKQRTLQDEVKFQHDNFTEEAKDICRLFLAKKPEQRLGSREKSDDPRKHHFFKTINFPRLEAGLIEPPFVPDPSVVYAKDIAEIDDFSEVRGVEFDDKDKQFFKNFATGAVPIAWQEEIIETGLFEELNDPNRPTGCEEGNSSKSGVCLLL
Method in brief: as §2

EphA4 = target: T14, EphA4 (Homo sapiens, UniProt P54764); test: KinaseProfiler; type: biochemical; conditions: 10 μM, ATP near Km
T14 construct: purchased Millipore, Inc. (KinaseProfiler service)
Method in brief: as §2

CAMK2g = target: T15, CAMK2g (Homo sapiens, UniProt Q13555); test: KinaseProfiler; type: biochemical; conditions: 10 μM, ATP near Km
T15 construct: purchased Millipore (KinaseProfiler service)
Method in brief: as §2

SRC = target: T16, SRC (Homo sapiens, UniProt P12931); test: KinaseProfiler; type: biochemical; conditions: 10 μM, ATP near Km
T16 construct: purchased Millipore, Inc. (KinaseProfiler service)
T16 sequence (P12931 whole entry): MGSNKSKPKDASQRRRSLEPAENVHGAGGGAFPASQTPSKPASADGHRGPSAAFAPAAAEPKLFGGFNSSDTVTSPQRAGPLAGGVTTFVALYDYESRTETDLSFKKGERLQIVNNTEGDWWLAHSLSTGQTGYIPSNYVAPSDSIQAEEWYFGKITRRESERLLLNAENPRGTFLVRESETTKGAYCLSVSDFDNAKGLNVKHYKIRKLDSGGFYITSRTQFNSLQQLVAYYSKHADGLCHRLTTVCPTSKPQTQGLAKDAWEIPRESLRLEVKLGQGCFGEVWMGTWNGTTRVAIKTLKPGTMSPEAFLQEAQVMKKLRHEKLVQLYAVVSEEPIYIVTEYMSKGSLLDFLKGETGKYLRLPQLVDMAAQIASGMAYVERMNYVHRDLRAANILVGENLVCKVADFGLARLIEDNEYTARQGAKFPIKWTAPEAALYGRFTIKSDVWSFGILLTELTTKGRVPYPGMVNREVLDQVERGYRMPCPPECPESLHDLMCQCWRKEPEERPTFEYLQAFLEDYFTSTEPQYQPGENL
Method in brief: as §2

EphA7 = target: T17, EphA7 (Homo sapiens, UniProt Q15375); test: KinaseProfiler; type: biochemical; conditions: 10 μM, ATP near Km
T17 construct: purchased Millipore, Inc. (KinaseProfiler service)
Method in brief: as §2

BTK = target: T18, BTK (Homo sapiens, UniProt Q06187); test: KinaseProfiler; type: biochemical; conditions: 10 μM, ATP near Km
T18 construct: purchased Millipore (KinaseProfiler service)
T18 sequence (Q06187 whole entry): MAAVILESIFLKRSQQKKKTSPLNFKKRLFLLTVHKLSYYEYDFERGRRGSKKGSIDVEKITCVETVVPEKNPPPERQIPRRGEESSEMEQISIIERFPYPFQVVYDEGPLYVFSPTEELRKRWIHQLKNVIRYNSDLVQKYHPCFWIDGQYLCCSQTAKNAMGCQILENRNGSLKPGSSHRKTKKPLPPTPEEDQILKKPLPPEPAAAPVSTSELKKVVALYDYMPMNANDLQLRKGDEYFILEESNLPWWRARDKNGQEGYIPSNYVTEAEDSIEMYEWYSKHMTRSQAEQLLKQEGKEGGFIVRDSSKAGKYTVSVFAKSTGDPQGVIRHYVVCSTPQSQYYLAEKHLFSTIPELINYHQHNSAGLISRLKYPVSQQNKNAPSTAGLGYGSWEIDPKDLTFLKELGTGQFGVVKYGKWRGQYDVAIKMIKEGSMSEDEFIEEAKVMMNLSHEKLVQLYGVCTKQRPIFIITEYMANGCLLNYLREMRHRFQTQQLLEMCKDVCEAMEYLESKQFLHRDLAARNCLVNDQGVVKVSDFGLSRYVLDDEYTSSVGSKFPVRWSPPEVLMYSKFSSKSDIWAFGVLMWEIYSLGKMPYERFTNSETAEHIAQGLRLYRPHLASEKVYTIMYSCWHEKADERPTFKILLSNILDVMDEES
Method in brief: as §2

mTOR/FKBP12 = target: T19, mTOR/FKBP12 (Homo sapiens, UniProt P42345); test: KinaseProfiler; type: biochemical; conditions: 10 μM, ATP near Km
T19 construct: purchased Millipore, Inc. (KinaseProfiler service)
Method in brief: as §2

PTK5 = target: T20, PTK5 (Homo sapiens, UniProt P42685); test: KinaseProfiler; type: biochemical; conditions: 10 μM, ATP near Km
T20 construct: purchased Millipore, Inc. (KinaseProfiler service)
Method in brief: as §2

CHK2 = target: T21, CHK2 (Homo sapiens, UniProt O96017); test: KinaseProfiler; type: biochemical; conditions: 10 μM, ATP near Km
T21 construct: purchased Millipore, Inc. (KinaseProfiler service)
T21 sequence (O96017 whole entry): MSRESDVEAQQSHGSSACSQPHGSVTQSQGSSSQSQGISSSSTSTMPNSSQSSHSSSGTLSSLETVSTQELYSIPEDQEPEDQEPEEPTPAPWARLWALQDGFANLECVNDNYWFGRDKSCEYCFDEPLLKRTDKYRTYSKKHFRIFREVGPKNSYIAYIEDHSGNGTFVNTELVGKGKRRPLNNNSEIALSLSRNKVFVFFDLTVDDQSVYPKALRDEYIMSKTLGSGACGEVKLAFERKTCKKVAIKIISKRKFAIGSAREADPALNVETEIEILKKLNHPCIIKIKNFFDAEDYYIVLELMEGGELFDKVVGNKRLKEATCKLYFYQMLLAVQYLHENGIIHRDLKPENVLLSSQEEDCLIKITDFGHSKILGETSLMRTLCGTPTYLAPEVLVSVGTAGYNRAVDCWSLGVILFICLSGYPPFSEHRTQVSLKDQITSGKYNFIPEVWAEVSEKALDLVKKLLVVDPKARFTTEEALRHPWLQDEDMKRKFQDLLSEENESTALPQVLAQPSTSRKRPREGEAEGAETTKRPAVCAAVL
Method in brief: as §2

NEK11 = target: T22, NEK11 (Homo sapiens, UniProt Q8NG66); test: KinaseProfiler; type: biochemical; conditions: 10 μM, ATP near Km
T22 construct: purchased Millipore, Inc. (KinaseProfiler service)
Method in brief: as §2

Ros = target: T23, Ros (Homo sapiens, UniProt P08922); test: KinaseProfiler; type: biochemical; conditions: 10 μM, ATP near Km
T23 construct: purchased Millipore, Inc. (KinaseProfiler service)
Method in brief: as §2

EphA3 = target: T24, EphA3 (Homo sapiens, UniProt P29320); test: KinaseProfiler; type: biochemical; conditions: 10 μM, ATP near Km
T24 construct: purchased Millipore, Inc. (KinaseProfiler service)
Method in brief: as §2

off-target kinases = test: KinaseProfiler off-target kinase profiling, full kinase panel; type: biochemical; conditions: 10 μM; panel of about 230 kinases
Experimental: as §1
Such a drug profile would represent a safer approach to treating pain, inflammation, cancer and certain skin diseases than has been previously reported.

- pIC50 (TrkA [1]): > 7.00
- Avg POC (TrkA [2]): 0 POC
- Avg POC (MST3): 137 POC
- Avg POC (MAP3K5): 105 POC
- Avg POC (CLK2): 111.5 POC
- Avg POC (CDK9/cyclinT1): 112.5 POC
- Avg POC (CDK2/cyclinE): 106.5 POC
- Avg POC (Syk): 100 POC
- Avg POC (TAO2): 126 POC
- Avg POC (MST2): 101.5 POC
- Avg POC (PAK6): 148 POC
- Avg POC (TrkB): 105 POC
- Avg POC (NEK3): 120 POC
- Avg POC (GRK7): 115 POC
- Avg POC (EphA4): 115 POC
- Avg POC (CAMK2g): 103 POC
- Avg POC (SRC): 90 POC
- Avg POC (EphA7): 103 POC
- Avg POC (BTK): 119.5 POC
- Avg POC (mTOR/FKBP12): 97.5 POC
- Avg POC (PTK5): 102.5 POC
- Avg POC (CHK2): 130 POC
- Avg POC (NEK11): 75 POC
- Avg POC (Ros): 105.5 POC
- Avg POC (EphA3): 117 POC
SMILES: COCCCc1cc(Cl)c(Cl)cc1NC(=O)Nc1c(C)c(-c2cnn(C)c2)nn1-c1ccccc1 [Example 15, 1-(4,5-dichloro-2-(3-methoxypropyl)phenyl)-3-(1′,4-dimethyl-1-phenyl-1H,1′H-[3,4′-bipyrazol]-5-yl)urea]
- off-target kinase activity / selectivity for TrkA versus other kinases in the panel (off-target kinases): largely inactive against off-target kinases
